Legend:
[1] = tested on: CCK-4-treated rats; experiment: Elevated plus maze (EPM) after CCK-4 induced panic anxiety; type: in vivo, rat
Procedure: This example examines the effects of psilocybin on induced panic anxiety. The elevated plus maze (EPM) is a widely used behavioral assay for rodents to assess anti-panic or anti-anxiety effects of pharmacological agents. Briefly, rodents are placed at the junction of the four arms of the maze, facing an open arm, and entries/duration in each arm are recorded over a period of time. An increase in open arm activity reflects anti-anxiety behavior (Walf et al., Nature Protocols, 2007).
Panic anxiety can be induced in rodents through administration of panicogenic drugs such as cholecystokinin tetrapeptide (CCK-4). Peripheral administration of CCK-4 leads to an anxiogenic-like action in the EPM model of anxiety in rats. The anxiogenic effect of CCK-4 can be antagonized by benzodiazepine (e.g., diazepam) treatment.
Animal handling was performed on a daily basis starting 1 week before the EPM assay. CCK-4 was prepared in saline at the dosage volume of 1 mL/kg and was intraperitoneally administered to the rats 30 min before implementation of the EPM test resulting in a CCK-4 dose of 0.2 mg/kg. CCK-4 was administered to all treatment groups except for the vehicle control (saline). Treatment groups for this study are shown below in Table 33. The EPM assay was performed 2 hours, and 24 hours following administration of psilocybin, and 1 hour after administration of diazepam.
The apparatus used in the EPM assay was a PVC maze covered with Plexiglas and subdivided into four equal exploratory arms (21×8 cm). All arms were interconnected by a small platform (8×8 cm). The apparatus was placed 59 cm above the floor. Two arms were open and two arms were closed with walls (height: 21 cm).
After the appropriate pre-treatment time, the rat was placed on the platform opposite a closed arm. The number of entries and the time spent in each arm were recorded during a 5 min period. The animal was considered as entered in an arm when it placed four paws in the arm. During the trial, animal handling and the visibility of the operator was minimized as much as possible.
The results were analyzed by analysis of variance (ANOVA). Fisher's PLSD was used for pairwise comparisons and p value s 0.05 were considered significant.

[2] = tested on: female Wistar rats; experiment: Binge eating model: chow, chocolate and total food intake
[3] = 0.2 mg/kg i.p., 30 min before EPM
[4] = positive control, 1 hour after administration

With `CSCC[C@H](NC(=O)[C@@H](N)Cc1c[nH]c2ccccc12)C(=O)N[C@@H](CC(=O)O)C(=O)N[C@@H](Cc1ccccc1)C(N)=O` [CCK-4, cholecystokinin tetrapeptide] the “Number of entries into the open arm vs saline alone” value [1, 3] was “significantly reduced” and the “Time spent in the open arm vs saline alone” value [1, 3] was “significantly reduced”.
`CN1C(=O)CN=C(c2ccccc2)c2cc(Cl)ccc21` [Diazepam, diazepam] was tested, and the “Number of entries into the open arms vs CCK-4 alone” value [1, 4] was “significant increase” and the “Time spent in the open arms vs CCK-4 alone” value [1, 4] was “significant increase”.
`C[C@@H](Cc1ccccc1)NC(=O)[C@@H](N)CCCCN` [LDX, lisdexamfetamine] was tested, and the “Chocolate intake during binging session vs vehicle/binge” value ([2]; 0.8 mg/kg daily PO, 1 hour) was “significantly reduced chocolate eating” and the “Food intake over a 24 hour period” value ([2]; Day 1, 0.8 mg/kg daily PO) was “significantly reduced”.

— US11865126B2, “Method for treating anxiety disorders, headache disorders, and eating disorders with psilocybin” (priority 2019, dated 2024)
